Molecular target: CDK2 (UniProt P24941)
Assay: Enzyme Assay
Conditions: not given

Compound | IC50 [µM]
COC(COc1nc(N)nc2[nH]cnc12)(OC)c1ccccc1 | > 100
C=CCOc1ncnc2[nH]cnc12 | > 100
Nc1nc(OCC2CCCCO2)c2nc[nH]c2n1 (stereo not drawn) | > 100
CCC(COc1nc(N)nc2[nH]cnc12)(OC)OC | > 100
Nc1nc(OCC2CCCC2)c2nc[nH]c2n1 | > 100
Nc1nc(OCc2cccc3ccccc23)c2nc[nH]c2n1 | > 100
Nc1nc(OCC2COC3(CCCCC3)O2)c2nc[nH]c2n1 (stereo not drawn) | > 100
C=C(C)C1CC=C(COc2nc(N)nc3[nH]cnc23)CC1 (stereo not drawn) | > 100
Nc1nc(OCCc2ccccc2)c2nc[nH]c2n1 | > 100
CC1(C)OC2OC(COc3nc(N)nc4[nH]cnc34)C3OC(C)(C)OC3C2O1 (stereo not drawn) | > 100
Nc1nc(OCC23CC4CC(CC(C4)C2)C3)c2nc[nH]c2n1 | > 100
c1nc(OCC2CCCCO2)c2nc[nH]c2n1 (stereo not drawn) | > 100
CCOC(C)(COc1nc(N)nc2[nH]cnc12)OCC | > 100
Nc1nc(OCc2ccc3ccccc3c2)c2nc[nH]c2n1 | > 100
C=CCOc1nc(N)nc2[nH]cnc12 | > 100
COCC(COc1nc(N)nc2[nH]cnc12)OC (stereo not drawn) | > 100
CC(C)C1(COc2nc(N)nc3[nH]cnc23)OCCO1 | > 100
CC1(C)OCC(COc2nc(N)nc3[nH]cnc23)O1 (stereo not drawn) | > 100
Nc1nc(OCC2COc3ccccc3O2)c2nc[nH]c2n1 (stereo not drawn) | > 100
CC(C)C(=O)COc1nc(N)nc2[nH]cnc12 | > 100
Nc1nc(OCC(O)CO)c2nc[nH]c2n1 (stereo not drawn) | > 100
COC1OC(COc2nc(N)nc3[nH]cnc23)C2OC(C)(C)OC12 (stereo not drawn) | > 100

Same assay, conditions: concentration not given here

Compound | inhibition [%]
Cc1ccc(N=Nc2c(N)nc(N)nc2OCC2CCCCC2)cc1 | 6

From the Kinase Knowledgebase extract (Sharma et al. 2016)
